Consider ten molecules from patent publication US11957759B1, “Rapidly accelerated fibrosarcoma (RAF) degrading compounds and associated methods of use” (Arvinas Operations, Inc., priority 2022, dated 2024).

In general, DC50 refers to the concentration at which degradation of the target reaches its halfway point. High values mean a less potent degrader, low ones a more potent degrader. The Dmax is the greatest extent of degradation seen. Low values mean shallow degradation, high ones deep degradation.

One test concerns the target T1, B-RAF V600E (Homo sapiens, UniProt P15056, V600E).
T1 construct: expressed in transfected cells; host or cells: T-Rex 293 cells (Invitrogen #R71007)
Kind of test: Target protein degradation, assay A: T-Rex 293 cells, HA-B-RAF_V600E, 96 well format. In kind it is cell-based. Particulars: T-Rex 293 HA-B-RAF_V600E cells, 24 hours, Examples 1-82. How it is done:
A. T-Rex 293 Cells (96 well format)
T-Rex 293 cells were purchased from Invitrogen (#R71007), and stably transfected with a pcDNA4/TO_HA-B-RAF_V600E construct, using 400 ug Zeocin for selection. V600e cells are plated in ulbecco's Modified Eagle Medium (DMEM; Gibco #11965118) containing 10% fetal bovine serum (FBS; Gibco #16000044) and 1 ng/mL doxycycline (Selleckchem #4163) at a density of 5,000 cells/well in 50 μl on poly-D-lysine (PDL) coated, black clear bottom 96-well plates (Corning #354640) and incubated for 24 hours at 37° C. with 5% CO2. The following day 50 ul of tested compound was added at 2× concentration in DMEM with a final concentration ranging from 1 μM to 0.1 nM in 0.1% dimethylsulfoxide (DMSO), and incubated for 24 hours at 37° C. with 5% CO2. At the end of the experimental treatment, the media was flicked off and cells washed once with phosphate-buffered saline (PBS)++(PBS with CaCl and MgCl) and gently replacing with 200 μl PBS++ per well. The PBS++ was removed and 50 uL 4% paraformaldehyde (PFA; EMS #15710) in PBS++ was added, and incubate at room temperature for 15 minutes. Cells were washed once with PBS++ and 50 uL 0.1% Triton X-100 (Fisher #BP151-500) in PBS++ was added. Plate was incubate for 5 minutes at room temperature. Cells were was once with PBS++. Cells were blocked with 100 uL Licor blocking buffer (Licor #927-50000) for 1 hour at room temperature. Next, 50 uL of HA antibody (CST #3724) at 1:1000 in Licor blocking buffer was added, and the plate icubate overnight at 4° C. The plates were parafilmed to prevent evaporation. Plate was washed three times with 200 uL PBS++. Fifty microliters of HCS secondary antibody solution [1:1000 Hoechst (Invitrogen #H3570), 1:1000 phalloidin (Invitrogen #A22287) and 1:5000 Alexa fluor (Invitrogen #A11008)] was added and incubated for 1 hour. Plate was wash three times with 200 uL PBS++, and imaged on a high content reader (ImageXpress Micro XLS, Molecular Devices).
(§1) The concentration of an exemplary compound that leads to half maximal degradation (DC50) as well as the maximum degradation observed (Dmax, conventionally expressed as a percentage of control) is shown below in Table 2.

A further test has as its target T2, B-RAF G466V (Homo sapiens, UniProt P15056, G466V).
T2 construct: expressed in transfected cells; host or cells: T-Rex 293 cells (Invitrogen #R71007)
Kind of test: Target protein degradation, assay B: T-Rex 293 cells, HA-B-RAF_G466V, 96 well format. As to conditions: T-Rex 293 HA-B-RAF_G466V cells, 24 hours, Examples 1-82. In kind it is cell-based. How it is done: B. T-Rex 293 Cells (96 Well Format)
T-Rex 293 cells were purchased from Invitrogen (#R71007), and stably transfected with a pcDNA4/TO_HA-B-RAF_G466V construct, using 400 ug Zeocin for selection. G466V cells are plated in ulbecco's Modified Eagle Medium (DMEM; Gibco #11965118) containing 10% fetal bovine serum (FBS; Gibco #16000044) and 0.75 ng/mL doxycycline (Selleckchem #4163) at a density of 5,000 cells/well in 50 μl on poly-D-lysine (PDL) coated, black clear bottom 96-well plates (Corning #354640) and incubated for 24 hours at 37° C. with 5% CO2. The following day 50 ul of tested compound was added at 2× concentration in DMEM with a final concentration ranging from 30 nM to 3 pM in 0.1% dimethylsulfoxide (DMSO), and incubated for 24 hours at 37° C. with 5% CO2. At the end of the experimental treatment, the media was flicked off and cells washed once with phosphate-buffered saline (PBS)++(PBS with CaCl and MgCl) and gently replacing with 200 μl PBS++ per well. The PBS++ was removed and 50 uL 4% paraformaldehyde (PFA; EMS #15710) in PBS++ was added, and incubate at room temperature for 15 minutes. Cells were washed once with PBS++ and 50 uL 0.1% Triton X-100 (Fisher #BP151-500) in PBS++ was added. Plate was incubate for 5 minutes at room temperature. Cells were was once with PBS++. Cells were blocked with 100 uL Licor blocking buffer (Licor #927-50000) for 1 hour at room temperature. Next, 50 uL of HA antibody (CST #3724) at 1:1000 in Licor blocking buffer was added, and the plate icubate overnight at 4° C. The plates were parafilmed to prevent evaporation. Plate was washed three times with 200 uL PBS++. Fifty microliters of HCS secondary antibody solution [1:1000 Hoechst (Invitrogen #H3570), 1:1000 phalloidin (Invitrogen #A22287) and 1:5000 Alexa fluor (Invitrogen #A11008)] was added and incubated for 1 hour. Plate was wash three times with 200 uL PBS++, and imaged on a high content reader (ImageXpress Micro XLS, Molecular Devices).
as §1

T2 sequence (P15056 whole entry G466V): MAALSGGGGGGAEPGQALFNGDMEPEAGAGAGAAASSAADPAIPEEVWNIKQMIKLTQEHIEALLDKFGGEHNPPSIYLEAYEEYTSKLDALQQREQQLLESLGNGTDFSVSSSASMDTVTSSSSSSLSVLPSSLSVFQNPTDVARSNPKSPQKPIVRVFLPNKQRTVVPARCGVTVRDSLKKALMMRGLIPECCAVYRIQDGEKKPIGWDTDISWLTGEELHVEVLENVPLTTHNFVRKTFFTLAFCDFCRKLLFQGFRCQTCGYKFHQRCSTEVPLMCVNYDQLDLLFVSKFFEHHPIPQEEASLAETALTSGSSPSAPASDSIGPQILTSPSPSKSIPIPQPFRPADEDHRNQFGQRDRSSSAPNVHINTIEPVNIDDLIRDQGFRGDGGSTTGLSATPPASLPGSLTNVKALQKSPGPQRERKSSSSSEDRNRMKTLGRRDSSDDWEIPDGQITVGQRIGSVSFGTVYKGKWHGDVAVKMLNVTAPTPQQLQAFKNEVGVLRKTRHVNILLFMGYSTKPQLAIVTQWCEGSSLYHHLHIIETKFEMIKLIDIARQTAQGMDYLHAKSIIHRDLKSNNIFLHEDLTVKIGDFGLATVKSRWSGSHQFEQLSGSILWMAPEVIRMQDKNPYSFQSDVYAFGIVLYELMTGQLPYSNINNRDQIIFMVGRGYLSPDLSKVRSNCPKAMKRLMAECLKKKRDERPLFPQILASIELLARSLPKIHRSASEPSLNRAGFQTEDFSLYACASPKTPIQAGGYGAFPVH
T1 sequence (P15056 whole entry V600E): as the sequence (P15056 whole entry G466V) above, with V466G, V600E counted along it

For `N#Cc1c(NS(=O)(=O)N2CC[C@@H](F)C2)ccc(F)c1Oc1ccc2ncn(-c3ccc(N4CCN(CC5CCN(c6cccc7c6ccn7C6CCC(=O)NC6=O)CC5)CC4)cc3)c(=O)c2c1` (stereo partly drawn) [Example 74, (3R)—N-{2-cyano-3-[(3-{4-[4-({1-[1-(2,6-dioxopiperidin-3-yl)-1H-indol-4-yl]piperidin-4-yl}methyl)piperazin-1-yl]phenyl}-4-oxo-3,4-dihydroquinazolin-6-yl)oxy]-4-fluorophenyl}-3-fluoropyrrolidine-1-sulfonamide], on B-RAF V600E, the half-maximal degradation concentration (DC50) was in the range of 50 to 500 nM and the Dmax is 35 to 70%. In addition, at B-RAF G466V, the DC50 was 1 to 10 nM and the Dmax was not above 35%.

On B-RAF V600E, `N#Cc1c(NS(=O)(=O)N2CC[C@@H](F)C2)ccc(F)c1Oc1ccc2ncn(-c3ccc(N4CCN(CC5CCN(c6ccc7c(c6)CN([C@H]6CCC(=O)NC6=O)C7=O)CC5)CC4)cc3)c(=O)c2c1` [Example 77, (3R)—N-(2-cyano-3-{[3-(4-{4-[(1-{2-[(3S)-2,6-dioxopiperidin-3-yl]-1-oxo-2,3-dihydro-1H-isoindol-5-yl}piperidin-4-yl)methyl]piperazin-1-yl}phenyl)-4-oxo-3,4-dihydroquinazolin-6-yl]oxy}-4-fluorophenyl)-3-fluoropyrrolidine-1-sulfonamide] showed a half-maximal degradation concentration (DC50) of 50 to 500 nM and a Dmax of 35 to 70%. On B-RAF G466V, this molecule had a DC50 of 1 to 10 nM and a Dmax of 35 to 70%.

In the case of `N#Cc1c(NS(=O)(=O)N2CC[C@@H](F)C2)ccc(F)c1Oc1ccc2ncn(-c3ccn(C4CCN(CC5CCN(c6ccc7c(c6)CN(C6CCC(=O)NC6=O)C7=O)CC5)CC4)n3)c(=O)c2c1` (stereo partly drawn) [Example 75, (3R)—N-{2-cyano-3-[(3-{1-[1-({1-[2-(2,6-dioxopiperidin-3-yl)-1-oxo-2,3-dihydro-1H-isoindol-5-yl]piperidin-4-yl}methyl)piperidin-4-yl]-1H-pyrazol-3-yl}-4-oxo-3,4-dihydroquinazolin-6-yl)oxy]-4-fluorophenyl}-3-fluoropyrrolidine-1-sulfonamide], at B-RAF V600E, the 50% degradation concentration (DC50) was 50 to 500 nM and the Dmax was in the range of 35 to 70%. For the same molecule, on B-RAF G466V, the 50% degradation concentration (DC50) was 1 to 10 nM and the Dmax was not above 35%.

Turning to `N#Cc1c(NS(=O)(=O)N2CC[C@@H](F)C2)ccc(F)c1Oc1ccc2ncn(-c3ccc(N4CCN(CC5CCN(c6ccc7c(c6F)CN([C@H]6CCC(=O)NC6=O)C7=O)CC5)CC4)cc3)c(=O)c2c1` [Example 73, (3R)—N-(2-cyano-3-{[3-(4-{4-[(1-{2-[(3S)-2,6-dioxopiperidin-3-yl]-4-fluoro-1-oxo-2,3-dihydro-1H-isoindol-5-yl}piperidin-4-yl)methyl]piperazin-1-yl}phenyl)-4-oxo-3,4-dihydroquinazolin-6-yl]oxy}-4-fluorophenyl)-3-fluoropyrrolidine-1-sulfonamide], the DC50 on B-RAF V600E fell in the range of 5 to 50 nM; at B-RAF G466V, 1 to 10 nM. Moreover, the greatest degradation seen (Dmax) on B-RAF V600E and on B-RAF G466V was 35 to 70% throughout.

As to `N#Cc1c(NS(=O)(=O)N2CC[C@@H](F)C2)ccc(F)c1Oc1ccc2ncn(-c3ccc(N4CCN(c5ccc6c(c5)CN(C5CCC(=O)NC5=O)C6=O)CC4)cc3)c(=O)c2c1` (stereo partly drawn) [Example 5, (3R)—N-[2-cyano-3-[3-[4-[4-[2-(2,6-dioxo-3-piperidyl)-1-oxo-isoindolin-5-yl]piperazin-1-yl]phenyl]-4-oxo-quinazolin-6-yl]oxy-4-fluoro-phenyl]-3-fluoro-pyrrolidine-1-sulfonamide], the 50% degradation concentration (DC50) is more than 500 nM on B-RAF V600E and more than 30 nM at B-RAF G466V.

In the case of `N#Cc1c(NS(=O)(=O)N2CC[C@@H](F)C2)ccc(F)c1Oc1ccc2ncn(-c3ccc(N4CCN(C(=O)CC5(O)CCN(c6ccc7c(c6)CN([C@H]6CCC(=O)NC6=O)C7=O)CC5)CC4)cc3)c(=O)c2c1` [Example 4, (3R)—N-(2-cyano-3-{[3-(4-{4-[2-(1-{2-[(3S)-2,6-dioxopiperidin-3-yl]-1-oxo-2,3-dihydro-1H-isoindol-5-yl}-4-hydroxypiperidin-4-yl)acetyl]piperazin-1-yl}phenyl)-4-oxo-3,4-dihydroquinazolin-6-yl]oxy}-4-fluorophenyl)-3-fluoropyrrolidine-1-sulfonamide], the DC50 was in the range of 5 to 50 nM on B-RAF V600E and 1 to 10 nM at B-RAF G466V. Moreover, the Dmax on B-RAF V600E and at B-RAF G466V was 35 to 70% each time.

`N#Cc1c(NS(=O)(=O)N2CC[C@@H](F)C2)ccc(F)c1Oc1ccc2ncn(-c3ccc(N4CCN(C(=O)CC5(O)CCN(c6ccc7c(c6)CN([C@H]6CCC(=O)NC6=O)C7=O)CC5)CC4)nc3)c(=O)c2c1` [Example 65, (3R)-N-(2-cyano-3-{[3-(6-{4-[2-(1-{2-[(3S)-2,6-dioxopiperidin-3-yl]-1-oxo-2,3-dihydro-1H-isoindol-5-yl}-4-hydroxypiperidin-4-yl)acetyl]piperazin-1-yl}pyridin-3-yl)-4-oxo-3,4-dihydroquinazolin-6-yl]oxy}-4-fluorophenyl)-3-fluoropyrrolidine-1-sulfonamide]: the values for the DC50 on B-RAF V600E and at B-RAF G466V were more than 500 nM and 10 to 30 nM, respectively. The same molecule gave a Dmax at B-RAF G466V of 35 to 70%.

On B-RAF V600E, `N#Cc1c(NS(=O)(=O)N2CC[C@@H](F)C2)ccc(F)c1Oc1ccc2ncn(-c3ccc(N4CCN(C(=O)CC5(O)CCN(c6ccc(C7CCC(=O)NC7=O)cc6F)CC5)CC4)nc3)c(=O)c2c1` (stereo partly drawn) [Example 69, (3R)-N-{2-cyano-3-[(3-{6-[4-(2-{1-[4-(2,6-dioxopiperidin-3-yl)-2-fluorophenyl]-4-hydroxypiperidin-4-yl}acetyl)piperazin-1-yl]pyridin-3-yl}-4-oxo-3,4-dihydroquinazolin-6-yl)oxy]-4-fluorophenyl}-3-fluoropyrrolidine-1-sulfonamide] gave a half-maximal degradation concentration (DC50) of 50 to 500 nM and a Dmax of 35 to 70%. On B-RAF G466V, this molecule showed a 50% degradation concentration (DC50) of 1 to 10 nM and a Dmax of 35 to 70%.

Turning to `N#Cc1c(NS(=O)(=O)N2CC[C@@H](F)C2)ccc(F)c1Oc1ccc2ncn(-c3cnc(N4CCN(c5ccc6c(c5)C(=O)N(C5CCC(=O)NC5=O)C6=O)CC4)nc3)c(=O)c2c1` (stereo partly drawn) [Example 31, (3R)-N-(2-cyano-3-{[3-(2-{4-[2-(2,6-dioxopiperidin-3-yl)-1,3-dioxo-2,3-dihydro-1H-isoindol-5-yl]piperazin-1-yl}pyrimidin-5-yl)-4-oxo-3,4-dihydroquinazolin-6-yl]oxy}-4-fluorophenyl)-3-fluoropyrrolidine-1-sulfonamide], the half-maximal degradation concentration (DC50) was more than 500 nM on B-RAF V600E and more than 30 nM at B-RAF G466V.

With `N#Cc1c(NS(=O)(=O)N2CC[C@@H](F)C2)ccc(F)c1Oc1ccc2ncn(-c3ccc(N4CCN(c5ccc6c(c5)C(=O)N(C5CCC(=O)NC5=O)C6=O)CC4)cc3)c(=O)c2c1` (stereo partly drawn) [Example 71, (3R)-N-(2-cyano-3-{[3-(4-{4-[2-(2,6-dioxopiperidin-3-yl)-1,3-dioxo-2,3-dihydro-1H-isoindol-5-yl]piperazin-1-yl}phenyl)-4-oxo-3,4-dihydroquinazolin-6-yl]oxy}-4-fluorophenyl)-3-fluoropyrrolidine-1-sulfonamide], the DC50 at B-RAF V600E is more than 500 nM; at B-RAF G466V it was more than 30 nM.
